Data from patent US11000033B2, “Ketone or oxime compound, and herbicide” (NISSAN CHEMICAL CORPORATION, priority 2014, dated 2021).

Key:
Type in all cases: in vivo
Apera spica-venti [1] = experiment: Test Example 5: herbicidal effect by foliage application, plastic box (symbol L); settings: 320 g/ha, 3 weeks after application
How it was run: (§1)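 Emulsion formulation, diluted with water to the intended rate, was applied uniformly to leaves by small sprayer. Recipients were 14-day greenhouse-grown seedlings (25° C. to 30° C.). Assessment followed at 3 weeks.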

Cyperus difformis = experiment: Test Example 3: herbicidal effect by foliage application, Wagner pot (symbol E); settings: application herbicide amount 320 g/ha
How it was run: (§2)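 Foliar spray of a water-diluted emulsion at a predetermined herbicide amount, applied to 14-day-old plants. Seedlings were raised in flooded alluvial soil (0.1–0.5 cm water) at 25–30 °C in a greenhouse. Injury was rated after 3 weeks against fixed criteria.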

beet = experiment: Test Example 4: effect on crop by soil treatment (symbol f); settings: application herbicide amount 320 g/ha
How it was run: (§3)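 Soil-treatment setup: crop and weed seeds were spot-sown into sterilized diluvial soil, then buried beneath approximately 1.5 cm of it, and the boxes were housed in a 25–30° C. greenhouse.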

[2] = tested on: Echinochloa crus-galli var. crus-galli; experiment: Test Example 4: herbicidal effect by soil treatment (symbol H); settings: application herbicide amount 320 g/ha
How it was run: (§4)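 Seeds were sown in sterilized diluvial soil, covered with about 1.5 cm of soil, and the soil surface was sprayed with a water-diluted emulsion of the compound at a predetermined rate. Plants grew in a greenhouse at 25° C. to 30° C.; effects were scored visually 3 weeks after application.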

Stellaria media = experiment: Test Example 5: herbicidal effect by foliage application, plastic box (symbol P); settings: 320 g/ha, 3 weeks after application
How it was run: as §1

transplanted rice plant = experiment: Test Example 1: effect on crop, application before weed generation in submerged conditions (symbol a); settings: application herbicide amount 320 g/ha
How it was run: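 Rice at 2.5 leaf stage transplanted into submerged soil (4 cm depth) sown with three weed species; herbicide applied before weed emergence.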

Chenopodium album [3] = experiment: Test Example 4: herbicidal effect by soil treatment (symbol O); settings: application herbicide amount 320 g/ha
How it was run: as §4

Abutilon theophrasti = experiment: Test Example 5: herbicidal effect by foliage application, plastic box (symbol M); settings: 320 g/ha, 3 weeks after application
How it was run: as §1

Monochoria vaginalis = experiment: Test Example 2: herbicidal activity, application during weed generation in submerged conditions (symbol C); settings: Table 23; application herbicide amount 320 g/ha; grade 0-5 by criteria of Test Example 1
How it was run: (§5)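 Scoring of herbicidal effect took place 3 weeks after treatment, using the criteria of the earlier test. Treatment was water-surface application of diluted emulsifiable compound at a set dose. Plants were at one- to two-leaf stage in submerged alluvial soil (4 cm depth), greenhouse 25-30° C.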

rapeseed = experiment: Test Example 4: effect on crop by soil treatment (symbol g); settings: application herbicide amount 320 g/ha
How it was run: as §3

Scirpus juncoides = experiment: Test Example 2: herbicidal activity, application during weed generation in submerged conditions (symbol B); settings: Table 23; application herbicide amount 320 g/ha; grade 0-5 by criteria of Test Example 1
How it was run: as §5

[4] = tested on: Echinochloa crus-galli var. crus-galli; experiment: Test Example 3: herbicidal effect by foliage application, Wagner pot (symbol H); settings: application herbicide amount 320 g/ha
How it was run: as §2

[5] = tested on: directly sowed rice plant; experiment: Test Example 3: effect on crop by foliage application, Wagner pot (symbol b); settings: application herbicide amount 320 g/ha
How it was run: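 Steps: fill a 1/10000-are Wagner pot with alluvial soil; add water and mix to submerge at 0.1–0.5 cm depth; sow rice plus Echinochloa crus-galli var. crus-galli, Leptochloa chinensis and Cyperus difformis; grow in a 25–30 °C greenhouse.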

Leptochloa chinensis = experiment: Test Example 3: herbicidal effect by foliage application, Wagner pot (symbol D); settings: application herbicide amount 320 g/ha
How it was run: as §2

Apera spica-venti [6] = experiment: Test Example 4: herbicidal effect by soil treatment (symbol L); settings: application herbicide amount 320 g/ha
How it was run: as §4

Chenopodium album [7] = experiment: Test Example 5: herbicidal effect by foliage application, plastic box (symbol O); settings: 320 g/ha, 3 weeks after application
How it was run: as §1

## CON=C(C)CC1CC(OC(=O)N(C)C)=C(c2c(C)cc(-c3ccc(Cl)cc3)cc2C)C1=O (mixture of isomers) [6-063]
Apera spica-venti [1]
  L: Apera spica-venti, herbicidal effect (criteria of Test Example 1): 5 (Herbicidal ratio of 90% or more (almost completely withered))
Cyperus difformis
  herbicidal effect on E, grade 0-5: 1 (Herbicidal ratio of 5% or higher and lower than 20%)
beet
  f: beet, effect on crop grade: 0 (Herbicidal ratio of 5% or lower (almost no effect))
[2]
  H: Echinochloa crus-galli var. crus-galli, herbicidal effect grade: 0 (Herbicidal ratio of 5% or lower (almost no effect))
Stellaria media
  P: Stellaria media, herbicidal effect (criteria of Test Example 1): 0 (Herbicidal ratio of 5% or lower (almost no effect))
Transplanted rice plant
  Effect grade on crop, a: transplanted rice plant: 4 (Herbicidal ratio of 70% or higher and lower than 90%)
Chenopodium album [3]
  O: Chenopodium album, herbicidal effect grade: 0 (Herbicidal ratio of 5% or lower (almost no effect))
Abutilon theophrasti
  M: Abutilon theophrasti, herbicidal effect (criteria of Test Example 1): 2 (Herbicidal ratio of 20% or higher and lower than 40%)
Monochoria vaginalis
  Herbicidal effect grade, C: Monochoria vaginalis: 2 (Herbicidal ratio of 20% or higher and lower than 40%)
rapeseed
  g: rapeseed, effect on crop grade: 0 (Herbicidal ratio of 5% or lower (almost no effect))
Scirpus juncoides
  Herbicidal effect grade, B: Scirpus juncoides: 3 (Herbicidal ratio of 40% or higher and lower than 70%)
[4]
  herbicidal effect on H (Echinochloa crus-galli var. crus-galli), grade 0-5: 4 (Herbicidal ratio of 70% or higher and lower than 90%)
[5]
  effect on crop b (directly sowed rice plant), grade 0-5: 5 (Herbicidal ratio of 90% or more (almost completely withered))
Leptochloa chinensis
  herbicidal effect on D (Leptochloa chinensis), grade 0-5: 5 (Herbicidal ratio of 90% or more (almost completely withered))
Apera spica-venti [6]
  L: Apera spica-venti, herbicidal effect grade: 5 (Herbicidal ratio of 90% or more (almost completely withered))

## CCc1cc(-c2ccc(Cl)cc2)cc(C)c1C1=C(OC(=O)N2CCOCC2)CC(CC(C)=NOC)C1=O (mixture of isomers) [6-064]
Apera spica-venti [1]
  L: Apera spica-venti, herbicidal effect (criteria of Test Example 1): 5 (Herbicidal ratio of 90% or more (almost completely withered))
Cyperus difformis
  herbicidal effect on E, grade 0-5: 0 (Herbicidal ratio of 5% or lower (almost no effect))
beet
  f: beet, effect on crop grade: 0 (Herbicidal ratio of 5% or lower (almost no effect))
[2]
  H: Echinochloa crus-galli var. crus-galli, herbicidal effect grade: 5 (Herbicidal ratio of 90% or more (almost completely withered))
Stellaria media
  P: Stellaria media, herbicidal effect (criteria of Test Example 1): 0 (Herbicidal ratio of 5% or lower (almost no effect))
Transplanted rice plant
  Effect grade on crop, a: transplanted rice plant: 5 (Herbicidal ratio of 90% or more (almost completely withered))
Chenopodium album [3]
  O: Chenopodium album, herbicidal effect grade: 0 (Herbicidal ratio of 5% or lower (almost no effect))
Abutilon theophrasti
  M: Abutilon theophrasti, herbicidal effect (criteria of Test Example 1): 4 (Herbicidal ratio of 70% or higher and lower than 90%)
Monochoria vaginalis
  Herbicidal effect grade, C: Monochoria vaginalis: 0 (Herbicidal ratio of 5% or lower (almost no effect))
rapeseed
  g: rapeseed, effect on crop grade: 0 (Herbicidal ratio of 5% or lower (almost no effect))
Scirpus juncoides
  Herbicidal effect grade, B: Scirpus juncoides: 0 (Herbicidal ratio of 5% or lower (almost no effect))
[4]
  herbicidal effect on H (Echinochloa crus-galli var. crus-galli), grade 0-5: 5 (Herbicidal ratio of 90% or more (almost completely withered))
[5]
  effect on crop b (directly sowed rice plant), grade 0-5: 4 (Herbicidal ratio of 70% or higher and lower than 90%)
Leptochloa chinensis
  herbicidal effect on D (Leptochloa chinensis), grade 0-5: 5 (Herbicidal ratio of 90% or more (almost completely withered))
Apera spica-venti [6]
  L: Apera spica-venti, herbicidal effect grade: 5 (Herbicidal ratio of 90% or more (almost completely withered))

## CON=C(C)C(C)C1CC(O)=C(c2c(C)cc(Br)cc2OC)C1=O (centres unmarked) [6-113]
Apera spica-venti [1]
  L: Apera spica-venti, herbicidal effect (criteria of Test Example 1): 5 (Herbicidal ratio of 90% or more (almost completely withered))
Cyperus difformis
  herbicidal effect on E, grade 0-5: 5 (Herbicidal ratio of 90% or more (almost completely withered))
beet
  Effect on crop grade, f: beet: 0 (Herbicidal ratio of 5% or lower (almost no effect))
[2]
  Herbicidal effect grade, H: Echinochloa crus-galli var. crus-galli: 5 (Herbicidal ratio of 90% or more (almost completely withered))
Stellaria media
  P: Stellaria media, herbicidal effect (criteria of Test Example 1): 0 (Herbicidal ratio of 5% or lower (almost no effect))
Transplanted rice plant
  Effect grade on crop, a: transplanted rice plant: 5 (Herbicidal ratio of 90% or more (almost completely withered))
Chenopodium album [3]
  Herbicidal effect grade, O: Chenopodium album: 0 (Herbicidal ratio of 5% or lower (almost no effect))
Abutilon theophrasti
  M: Abutilon theophrasti, herbicidal effect (criteria of Test Example 1): 0 (Herbicidal ratio of 5% or lower (almost no effect))
Monochoria vaginalis
  Herbicidal effect grade, C: Monochoria vaginalis: 3 (Herbicidal ratio of 40% or higher and lower than 70%)
rapeseed
  Effect on crop grade, g: rapeseed: 1 (Herbicidal ratio of 5% or higher and lower than 20%)
Scirpus juncoides
  Herbicidal effect grade, B: Scirpus juncoides: 0 (Herbicidal ratio of 5% or lower (almost no effect))
[4]
  herbicidal effect on H (Echinochloa crus-galli var. crus-galli), grade 0-5: 5 (Herbicidal ratio of 90% or more (almost completely withered))
[5]
  effect on crop b (directly sowed rice plant), grade 0-5: 5 (Herbicidal ratio of 90% or more (almost completely withered))
Leptochloa chinensis
  herbicidal effect on D (Leptochloa chinensis), grade 0-5: 5 (Herbicidal ratio of 90% or more (almost completely withered))
Chenopodium album [7]
  O: Chenopodium album, herbicidal effect (criteria of Test Example 1): 2 (Herbicidal ratio of 20% or higher and lower than 40%)

## CC(=O)CC1CC(O)=C(c2c(C)cc(Oc3ccc(C(F)(F)F)cn3)cc2C)C1=O (centres unmarked) [7-019]
Apera spica-venti [1]
  L: Apera spica-venti, herbicidal effect (criteria of Test Example 1): 3 (Herbicidal ratio of 40% or higher and lower than 70%)
Cyperus difformis
  herbicidal effect on E, grade 0-5: 2 (Herbicidal ratio of 20% or higher and lower than 40%)
beet
  Effect on crop grade, f: beet: 0 (Herbicidal ratio of 5% or lower (almost no effect))
[2]
  Herbicidal effect grade, H: Echinochloa crus-galli var. crus-galli: 0 (Herbicidal ratio of 5% or lower (almost no effect))
Stellaria media
  P: Stellaria media, herbicidal effect (criteria of Test Example 1): 0 (Herbicidal ratio of 5% or lower (almost no effect))
Transplanted rice plant
  Effect grade on crop, a: transplanted rice plant: 0 (Herbicidal ratio of 5% or lower (almost no effect))
Chenopodium album [3]
  Herbicidal effect grade, O: Chenopodium album: 0 (Herbicidal ratio of 5% or lower (almost no effect))
Abutilon theophrasti
  M: Abutilon theophrasti, herbicidal effect (criteria of Test Example 1): 0 (Herbicidal ratio of 5% or lower (almost no effect))
rapeseed
  Effect on crop grade, g: rapeseed: 0 (Herbicidal ratio of 5% or lower (almost no effect))
[4]
  herbicidal effect on H (Echinochloa crus-galli var. crus-galli), grade 0-5: 5 (Herbicidal ratio of 90% or more (almost completely withered))
[5]
  effect on crop b (directly sowed rice plant), grade 0-5: 3 (Herbicidal ratio of 40% or higher and lower than 70%)
Leptochloa chinensis
  herbicidal effect on D (Leptochloa chinensis), grade 0-5: 4 (Herbicidal ratio of 70% or higher and lower than 90%)
Chenopodium album [7]
  O: Chenopodium album, herbicidal effect (criteria of Test Example 1): 0 (Herbicidal ratio of 5% or lower (almost no effect))
Apera spica-venti [6]
  Herbicidal effect grade, L: Apera spica-venti: 0 (Herbicidal ratio of 5% or lower (almost no effect))
